Data as given in patent US6867207B2, “IL-5 inhibiting 6-azauracil derivatives” (Janssen Pharmaceutica N.V., priority 1997, dated 2005).

These compounds were tested on IL-5 production (assay: In vitro inhibition of IL-5 production in human blood (phytohemagglutinin-stimulated whole blood, ELISA)). Details: test dose 1×10^−6 M, 48 hours.
Assay type: cell-based
Outline: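 Heparinised blood from healthy male donors, diluted threefold in RPMI 1640, preincubated 60 min at 37° C with compound (0.02% DMSO vehicle), then stimulated with 2 μg/mL phytohemagglutinin for 48 h. Supernatant IL-5 measured by ELISA; percentage inhibition at 1×10^−6 M or 1×10^−5 M.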
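Further: values marked with an asterisk were tested at 10 µM and unmarked values at 1 µM.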

Going from `Cc1oc(C(c2ccc(Cl)cc2)c2c(Cl)cc(-n3ncc(=O)[nH]c3=O)cc2Cl)nc1-c1ccc(F)cc1` (stereo not shown) [Comp 431] to `O=c1cnn(-c2cc(Cl)c(C(c3ccc(Cl)cc3)c3nnc(-c4ccc(Cl)cc4)o3)c(Cl)c2)c(=O)[nH]1` (racemic) [Compound 167], the “% inh. (percentage inhibition of IL-5 production)” value rises from 67% to 82%.

First: N#CCc1nnc(C(c2ccc(Cl)cc2)c2c(Cl)cc(-n3ncc(=O)[nH]c3=O)cc2Cl)o1 (racemic) [Compound 179]
Second: O=c1cnn(-c2cc(Cl)c(C(c3ccc(Cl)cc3)c3nnc(-c4ccccc4)o3)c(Cl)c2)c(=O)[nH]1 (stereo not shown) [Compound 190, (B)-2-[3,5-dichloro-4-[(4-chlorophenyl)(5-phenyl-1,3,4-oxadizol-2-yl)methyl]phenyl]-1,2,4-triazine-3,5(2H,4H)-dione]
The “% inh. (percentage inhibition of IL-5 production)” value of the first is lower: 21% for the first, 83% for the second.

Compared with `O=c1cnn(-c2ccc(C(O)(c3ccc(Cl)cc3)c3nc(-c4ccccc4)cs3)c(Cl)c2)c(=O)[nH]1` (racemic) [Comp 34], `Cc1cc(C(C)(c2nc(-c3ccccc3)cs2)c2ccc(-n3ncc(=O)[nH]c3=O)cc2Cl)ccc1Cl` (racemic) [Comp 247] is higher in “% inh. (percentage inhibition of IL-5 production)” value: 58% for the first, 80% for the second.

Going from `CC(=O)Nc1ccc(SC(c2ccc(Cl)c(C(F)(F)F)c2)c2c(Cl)cc(-n3ncc(=O)[nH]c3=O)cc2Cl)cc1` (racemic) [Compound 398] to `O=c1cnn(-c2cc(Cl)c(C(Sc3nccc(-c4ccccc4)n3)c3ccc(Cl)c(C(F)(F)F)c3)c(Cl)c2)c(=O)[nH]1` (racemic) [Compound 342], the “% inh. (percentage inhibition of IL-5 production)” value falls from 96% to 93%.

Going from `O=c1cnn(-c2cc(Cl)c(C(c3ccc(Cl)cc3)c3nc(-c4ccc(Br)cc4)cs3)c(Cl)c2)c(=O)[nH]1` (racemic) [Comp 294] to `O=c1cnn(-c2cc(Cl)c(C(c3ccc(Cl)cc3)c3nc(-c4cccc(Cl)c4Cl)cs3)c(Cl)c2)c(=O)[nH]1` (racemic) [Comp 252], the “% inh. (percentage inhibition of IL-5 production)” value falls from 85% to 80%.

Going from `O=c1cnn(-c2cc(Cl)c(C(Sc3ncccn3)c3ccc(Cl)cc3)c(Cl)c2)c(=O)[nH]1` (single isomer, unassigned) [Compound 347] to `CN(C)c1ccnc(SC(c2ccc(Cl)cc2)c2c(Cl)cc(-n3ncc(=O)[nH]c3=O)cc2Cl)n1` (racemic) [Compound 355], the “% inh. (percentage inhibition of IL-5 production)” value rises from 8% to 83%.

Compared with `O=c1cnn(-c2ccc(C(c3ccc(Cl)cc3)c3sc(-c4ccccc4)nc3-c3ccccc3Cl)c(Cl)c2)c(=O)[nH]1` (racemic) [Compound 144], `O=C(c1ccccc1)c1sc(C(c2ccc(Cl)cc2)c2c(Cl)cc(-n3ncc(=O)[nH]c3=O)cc2Cl)nc1-c1ccccc1` (racemic) [Comp 273] is higher in “% inh. (percentage inhibition of IL-5 production)” value: 40% for the first, 77% for the second.

Compared with `O=c1cnn(-c2ccc(C(SCc3ccc(Cl)cc3)c3ccc(Cl)cc3)c(Cl)c2)c(=O)[nH]1` (racemic) [Compound 67], `Cn1ccnc1SC(c1ccc(Cl)cc1)c1ccc(-n2ncc(=O)[nH]c2=O)cc1Cl` (racemic) [Compound 58] is lower in “% inh. (percentage inhibition of IL-5 production)” value: 69% for the first, 5% for the second.

Going from `Cc1sc(C(c2ccc(Cl)c(C(F)(F)F)c2)c2c(Cl)cc(-n3ncc(=O)[nH]c3=O)cc2Cl)nc1-c1ccccc1` (racemic) [Comp 246] to `Cc1sc(C(c2ccc(Cl)cc2)c2c(Cl)cc(-n3ncc(=O)[nH]c3=O)cc2Cl)nc1-c1ccccc1F` (racemic) [Comp 259], the “% inh. (percentage inhibition of IL-5 production)” value rises from 94% to 95%.

Compared with `O=c1cnn(-c2cc(Cl)c(C(c3ccc(Cl)cc3)c3csc(-c4cccc(F)c4)n3)c(Cl)c2)c(=O)[nH]1` (racemic) [Compound 368], `O=c1cnn(-c2cc(Cl)c(C(c3ccc(Cl)cc3)c3csc(-c4ccccc4F)n3)c(Cl)c2)c(=O)[nH]1` (racemic) [Compound 364] is higher in “% inh. (percentage inhibition of IL-5 production)” value: 88% for the first, 95% for the second.

Compared with `O=c1cnn(-c2cc(Cl)c(C(c3ccc(Cl)cc3)c3nc(-c4ccccc4)c(CNC(=S)Nc4ccccc4)s3)c(Cl)c2)c(=O)[nH]1` (racemic) [Compound 331, (±)-N-[[2-[(4-chlorophenyl)[2,6-dichloro-(4,5-dihydro-3,5-dioxo-1,2,4-triazin-2(3H)-yl)phenyl]methyl]4-phenyl-5-thiazolyl]methyl]-N′-phenyl-thiourea], `CN(C)Cc1sc(C(c2ccc(Cl)cc2)c2c(Cl)cc(-n3ncc(=O)[nH]c3=O)cc2Cl)nc1-c1ccccc1` (racemic) [Comp 253] is higher in “% inh. (percentage inhibition of IL-5 production)” value: 95% for the first, 96% for the second.

Compared with `O=c1cnn(-c2cc(Cl)c(C(SC3=NCCS3)c3ccc(Cl)c(C(F)(F)F)c3)c(Cl)c2)c(=O)[nH]1` (stereo not shown) [Compound 386], `O=c1cnn(-c2cc(Cl)c(C(Sc3nc4cc(Cl)ccc4s3)c3ccc(Cl)c(C(F)(F)F)c3)c(Cl)c2)c(=O)[nH]1` (racemic) [Compound 402] is lower in “% inh. (percentage inhibition of IL-5 production)” value: 97% for the first, 90% for the second.

Compared with `CC(c1ccc(Cl)c(Cl)c1)(c1nc(-c2ccccc2)cs1)c1c(Cl)cc(-n2ncc(=O)[nH]c2=O)cc1Cl` (racemic) [Comp 227], `CC(c1ccc(Cl)c(C(F)(F)F)c1)(c1nc(-c2ccccc2)cs1)c1c(Cl)cc(-n2ncc(=O)[nH]c2=O)cc1Cl` (racemic) [Comp 23] is higher in “% inh. (percentage inhibition of IL-5 production)” value: 78% for the first, 83% for the second.

Compared with `O=c1cnn(-c2ccc(C(Sc3ccccn3)c3ccc(Cl)c(C(F)(F)F)c3)c(Cl)c2)c(=O)[nH]1` (stereo not shown) [Compound 86], `CCOc1ccc2nc(SC(c3ccc(Cl)c(C(F)(F)F)c3)c3c(Cl)cc(-n4ncc(=O)[nH]c4=O)cc3Cl)sc2c1` (stereo not shown) [Compound 394] is higher in “% inh. (percentage inhibition of IL-5 production)” value: 84% for the first, 93% for the second.

`Cc1sc(C(c2ccc(Cl)cc2)c2c(Br)cc(-n3ncc(=O)[nH]c3=O)cc2Br)nc1-c1ccccc1` (racemic) [Comp 330] and `CN(C)C(=O)Cc1sc(C(c2ccc(Cl)cc2)c2c(Cl)cc(-n3ncc(=O)[nH]c3=O)cc2Cl)nc1-c1ccccc1` (racemic) [Comp 275] are the same in “% inh. (percentage inhibition of IL-5 production)” value: 94% for the first, 94% for the second.

First: Cc1cc(-n2ncc(=O)[nH]c2=O)cc(C)c1C(c1ccc(Cl)c(Cl)c1)c1nc(-c2ccccc2)cs1 (racemic) [Comp 270]
Second: COc1cc(C(c2nc(-c3ccccc3)cs2)c2c(Cl)cc(-n3ncc(=O)[nH]c3=O)cc2Cl)ccc1Cl (racemic) [Comp 289]
The “% inh. (percentage inhibition of IL-5 production)” value of the first is lower: 86% for the first, 96% for the second.

First: COc1ccccc1-c1nnc(C(c2ccc(Cl)cc2)c2c(Cl)cc(-n3ncc(=O)[nH]c3=O)cc2Cl)o1 (racemic) [Compound 174]
Second: COc1cccc(-c2nnc(C(c3ccc(Cl)cc3)c3c(Cl)cc(-n4ncc(=O)[nH]c4=O)cc3Cl)o2)c1 (racemic) [Compound 170]
The “% inh. (percentage inhibition of IL-5 production)” value of the first is higher: 83% for the first, 62% for the second.

Going from `CCOC(=O)N1CCC(NC(=S)Nc2cccc(-c3nnc(C(c4ccc(Cl)cc4)c4c(Cl)cc(-n5ncc(=O)[nH]c5=O)cc4Cl)o3)c2)CC1` (racemic) [Compound 220] to `Cn1c(-c2ccccc2)nnc1C(c1ccc(Cl)cc1)c1c(Cl)cc(-n2ncc(=O)[nH]c2=O)cc1Cl.O` (stereo not shown) [Comp 428], the “% inh. (percentage inhibition of IL-5 production)” value rises from 25% to 66%.

First: Cc1nc(C(c2ccc(Cl)cc2)c2c(Cl)cc(-n3ncc(=O)[nH]c3=O)cc2Cl)sc1C (racemic) [Comp 16]
Second: CN(C)Cc1csc(C(c2ccc(Cl)cc2)c2c(Cl)cc(-n3ncc(=O)[nH]c3=O)cc2Cl)n1 (racemic) [Comp 240]
The “% inh. (percentage inhibition of IL-5 production)” value of the first is higher: 89% for the first, 54% for the second.

Compared with `CN(C)Cc1sc(C(c2ccc(Cl)cc2)c2c(Cl)cc(-n3ncc(=O)[nH]c3=O)cc2Cl)nc1-c1cccc(F)c1` (racemic) [Comp 280], `O=c1cnn(-c2cc(Cl)c(C(c3ccc(Cl)cc3)c3nc(-c4ccccc4)c(C4CCCCC4)s3)c(Cl)c2)c(=O)[nH]1` (racemic) [Comp 284] is lower in “% inh. (percentage inhibition of IL-5 production)” value: 96% for the first, 91% for the second.

For `O=c1cnn(-c2cc(Cl)c(C(SCc3cnccn3)c3ccc(Cl)cc3)c(Cl)c2)c(=O)[nH]1` (racemic) [Compound 407], the “% inh. (percentage inhibition of IL-5 production)” value was 71%.

Same assay, conditions: test dose 1×10^−6 M, 48 hours, read-out: % inh. (percentage inhibition of IL-5 production)

First: O=c1cnn(-c2ccc(C(c3ccc(Cl)cc3)c3nc4ccccc4o3)c(Cl)c2)c(=O)[nH]1 (racemic) [Compound 131, (±)-2-[4-[2-benzoxazolyl(4-chlorophenyl)methyl]-3-chlorophenyl]-1,2,4-triazine-3,5(2H,4H)-dione]
Second: O=c1cnn(-c2cc(Cl)c(C(c3ccc(Cl)cc3)c3nc(-c4ccccc4)cs3)c(Cl)c2)c(=O)[nH]1 (racemic) [Compound 38, (±)-2-[3,5-dichloro-4-[(4-chlorophenyl)(4-phenyl-2-thiazolyl)methyl]phenyl]-1,2,4-triazine-3,5(2H,4H)-dione]
The inhibition at 1 µM of the first is lower: 76% for the first, 92% for the second.

Going from `O=c1cnn(-c2cc(Cl)c(C(Sc3[nH]c(=S)[nH]c3-c3ccccc3)c3ccc(Cl)c(C(F)(F)F)c3)c(Cl)c2)c(=O)[nH]1` (racemic) [Compound 400, (±)-2-[3,5-dichloro-4-[[4-chloro-3-(trifluoromethyl)phenyl][(2,3-dihydro-5-phenyl-2-thioxo-1H-imidazol-4-yl)thio]-methyl]phenyl]-1,2,4-triazine-3,5(2H,4H)-dione] to `O=c1cnn(-c2cc(Cl)c(C(Nc3ncccn3)c3ccc(Cl)cc3)c(Cl)c2)c(=O)[nH]1` (racemic) [Compound 413, (±)-2-[3,5-dichloro-4-[(4-chlorophenyl)[(2-pyrimidinyl)amino]-methyl]phenyl]-1,2,4-triazine-3,5(2H,4H)-dione], the inhibition at 1 µM falls from 76% to 59%.

`CCNC(CSC(c1ccc(Cl)cc1)c1ccc(-n2ncc(=O)[nH]c2=O)cc1Cl)C(=O)O` (racemic) [Compound 95, (±)-ethyl α-[[[(4-chlorophenyl)[2-chloro-4-(4,5-dihydro-3,5-dioxo-1,2,4-triazin-2(3H)-yl)phenyl]methyl]thio]methyl]glycine] was tested, and the inhibition at 1 µM was 17%.
